Marks after values point to notes of the source that are not given here.
Key:
human S1P1 = human S1P1 (Homo sapiens (Human), UniProt P21453); test: S1P1 Binding Assay (33P-S1P radioligand competition); details: membranes of CHO cells expressing human S1P1, 0.03 nM 33P-S1P; rounded to two digits
Method: Membranes were prepared from CHO cells expressing human S1P1. Cells were dissociated in buffer containing 20 mM HEPES, pH 7.5, 50 mM NaCl, 2 mM EDTA and Protease Inhibitor cocktail (Roche), and disrupted on ice using the Polytron homogenizer. The homogenate was centrifuged at 20,000 rpm (48,000 G) and the supernatant was discarded. The membrane pellets were resuspended in buffer containing 50 mM HEPES, pH 7.5, 100 mM NaCl, 1 mM MgCl2, 2 mM EDTA and stored in aliquots at −80° C. after protein concentration determination.
Membranes (2 μg/well) and 0.03 nM final concentration of 33P-S1P ligand (1 mCi/ml, American Radiolabeled Chemicals) were added to the compound plates. Binding was performed for 45 minutes at room temperature, terminated by collecting the membranes onto GF/B filter plates, and radioactivity was measured by TOPCOUNT®. The competition data of the test compounds over a range of concentrations was plotted as percentage inhibition of radioligand specific binding. The IC50 is defined as the concentration of competing ligand needed to reduce specific binding by 50%.
The results in Table A were rounded to two digits.

[1] = biological target: S1P1 (membranes from S1P1/CHO cells) (Homo sapiens (Human), UniProt P21453); test: Receptor [35S] GTPγS Binding Assay, S1P1; assay type: biochemical; details: for EC50: S1P1/CHO membranes; for GTPγS S1P3/S1P1 (ratio of GTPγS S1P3 EC50 to GTPγS S1P1 EC50): calculated from Table B, S1P3 detection limit 31250 nM
Chain of S1P1 (membranes from S1P1/CHO cells) (P21453 whole entry): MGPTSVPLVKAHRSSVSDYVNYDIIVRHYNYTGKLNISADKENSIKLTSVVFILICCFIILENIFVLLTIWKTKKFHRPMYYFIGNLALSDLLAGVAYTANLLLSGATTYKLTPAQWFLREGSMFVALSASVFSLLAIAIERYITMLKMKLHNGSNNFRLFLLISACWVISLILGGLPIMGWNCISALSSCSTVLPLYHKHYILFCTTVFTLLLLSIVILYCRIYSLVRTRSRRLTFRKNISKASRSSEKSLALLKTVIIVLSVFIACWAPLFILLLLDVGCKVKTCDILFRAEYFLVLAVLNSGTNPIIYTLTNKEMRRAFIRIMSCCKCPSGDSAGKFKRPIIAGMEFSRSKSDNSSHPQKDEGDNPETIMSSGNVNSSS
Method: (§1) Receptor [35S] GTPγS Binding Assays
(§2) Compounds were loaded in a 384 FALCON® v-bottom plate (0.5 μl/well in a 3-fold dilution). Membranes prepared from S1P1/CHO cells or EDG3-Ga15-bla HEK293T cells were added to the compound plate (40 μl/well, final protein 3 μg/well) with MULTIDROP®. [^35S]GTP (1250 Ci/mmol, Perkin Elmer) was diluted in assay buffer: 20 mM HEPES, pH7.5, 10 mM MgCl2, 150 mM NaCl, 1 mM EGTA, 1 mM DTT, 10 μM GDP, 0.1% fatty acid free BSA, and 10 μg/ml Saponin to 0.4 nM. 40 μl of the [^35S] GTP solution was added to the compound plate with a final concentration of 0.2 nM. The reaction was kept at room temperature for 45 min. At the end of incubation, all the mixtures in the compound plate were transferred to a 384 well FB filter plates via GPCR robot system. The filter plate was washed with water 4 times by using the modified manifold Embla plate washer and dried at 60° C. for 45 min. 30 μl of MicroScint 20 scintillation fluid was added to each well for counting at Packard TOPCOUNT®. EC50 is defined as the agonist concentration that corresponds to 50% of the Ymax (maximal response) obtained for each individual compound tested.
A larger value for the GTPγS S1P3 EC50 value indicated less activity in the GTPγS S1P3 binding assay.

[2] = biological target: S1P3 (membranes from EDG3-Ga15-bla HEK293T cells) (Homo sapiens (Human), UniProt Q99500); test: Receptor [35S] GTPγS Binding Assay, S1P3; assay type: biochemical; details: detection limit 31250 nM
Chain of S1P3 (membranes from EDG3-Ga15-bla HEK293T cells) (Q99500 whole entry): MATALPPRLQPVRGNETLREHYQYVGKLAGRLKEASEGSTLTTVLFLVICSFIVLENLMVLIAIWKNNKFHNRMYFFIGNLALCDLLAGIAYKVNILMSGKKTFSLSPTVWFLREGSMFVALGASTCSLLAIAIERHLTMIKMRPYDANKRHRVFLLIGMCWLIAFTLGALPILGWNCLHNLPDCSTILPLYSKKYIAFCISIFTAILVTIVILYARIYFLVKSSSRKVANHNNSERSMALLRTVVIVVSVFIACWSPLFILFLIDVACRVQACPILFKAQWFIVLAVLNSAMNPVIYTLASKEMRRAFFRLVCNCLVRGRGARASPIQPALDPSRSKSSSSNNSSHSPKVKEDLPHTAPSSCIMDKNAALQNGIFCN
Method: as §1, §2
A smaller value for GTPγS S1P1 EC50 value indicated greater activity for the compound in the GTPγS S1P1 binding assay. A larger value for the GTPγS S1P3 EC50 value indicated less activity in the GTPγS S1P3 binding assay.

[3] = system: circulating blood lymphocytes; test: Blood Lymphocyte Reduction Assay (BLR) in Rodents; assay type: in vivo; details: Lewis rats, oral, vs vehicle group
Method: Blood Lymphocyte Reduction Assay (BLR) in Rodents
Lewis rats were dosed orally with test article (as a solution or suspension in the vehicle) or vehicle alone (polyethylene glycol 300, “PEG300”). Blood was drawn at 4 hr by retro-orbital bleeding. Blood lymphocyte counts were determined on an ADVIA® 120 Hematology Analyzer (Siemens Healthcare Diagnostics). The results were measured as a reduction in the percentage of circulating lymphocytes as compared to the vehicle treated group at the 4 hr measurement. The results represent the average results of all animals within each treatment group (n=3-4).
The following examples were tested in the Blood Lymphocyte Reduction assay (BLR) described herein above and the results are shown in Table D for rats.

Chain of human S1P1 (P21453 whole entry): as the sequence (P21453 whole entry) above

Row | Compound | IC50 (human S1P1) | EC50 [1] | EC50 [2] | GTPγS S1P3/S1P1 (ratio of GTPγS S1P3 EC50 to GTPγS S1P1 EC50) [1] | % Reduction in Lymphocytes at 4 hr. ([3]; 3 mg/kg) | % Reduction in Lymphocytes at 4 hr. ([3]; 0.5 mg/kg)
1 | N[C@@H]1COc2cc(-c3noc(-c4onc(-c5ccccc5)c4C(F)(F)F)n3)ccc2[C@H]1O (racemic) [Example 4, (3R*,4R*)-3-amino-7-(5-(3-phenyl-4-(trifluoromethyl)isoxazol-5-yl)-1,2,4-oxadiazol-3-yl)chroman-4-ol] | 23 nM | 80 nM | 13000 nM | – | – | –
2 | N[C@@H]1COc2cc(-c3noc(-c4onc(-c5ccccc5)c4C(F)(F)F)n3)ccc2[C@H]1O (relative stereo) [Example 4, (3R*,4R*)-3-amino-7-(5-(3-phenyl-4-(trifluoromethyl)isoxazol-5-yl)-1,2,4-oxadiazol-3-yl)chroman-4-ol] | – | – | – | 160 | – | –
3 | CCOC(=O)C1CCCC(N[C@@H]2COc3cc(-c4noc(-c5onc(-c6ccccc6)c5C(F)(F)F)n4)ccc3[C@@H]2O)C1 (relative stereo) [Example 13, ethyl 3-((3R*,4S*)-4-hydroxy-7-(5-(3-phenyl-4-(trifluoromethyl)isoxazol-5-yl)-1,2,4-oxadiazol-3-yl)chroman-3-ylamino)cyclohexanecarboxylate] | 630 nM | 160 nM | > 31000 nM | > 200* | – | –
4 | O=C(O)CC1CCCN([C@@H]2COc3cc(-c4noc(-c5onc(-c6ccccc6)c5C(F)(F)F)n4)ccc3[C@@H]2O)C1 (single isomer, unassigned) [Example 50] | 57 nM | 27 nM | 24000 nM | 870 | – | –
5 | N[C@@H]1COc2cc(-c3noc(-c4onc(-c5ccccc5)c4C(F)(F)F)n3)ccc2[C@@H]1O [Example 9, (3R,4S)-3-Amino-7-(5-(3-phenyl-4-(trifluoromethyl)isoxazol-5-yl)-1,2,4-oxadiazol-3-yl)chroman-4-ol] | 39 nM | 33 nM | 8600 nM | 260 | – | –
6 | O=C(O)C1(CN[C@@H]2COc3cc(-c4noc(-c5onc(-c6ccccc6)c5C(F)(F)F)n4)ccc3[C@@H]2O)CCCCC1 [Example 39, 1-(((3R,4S)-4-hydroxy-7-(5-(3-phenyl-4-(trifluoromethyl)isoxazol-5-yl)-1,2,4-oxadiazol-3-yl)chroman-3-ylamino)methyl)cyclohexanecarboxylic acid] | 541 nM | 85 nM | > 31000 nM | > 370* | – | –
7 | O=C(O)[C@H]1CCC[C@H](N[C@@H]2COc3cc(-c4noc(-c5onc(-c6ccccc6)c5C(F)(F)F)n4)ccc3[C@@H]2O)C1 [Example 57, (1S,3S)-3-((3R,4S)-4-hydroxy-7-(5-(3-phenyl-4-(trifluoromethyl)isoxazol-5-yl)-1,2,4-oxadiazol-3-yl)chroman-3-ylamino)cyclohexanecarboxylic acid] | 0.7 nM | 1 nM | 7300 nM | 7300 | – | 69%
8 | O=C(O)[C@@H]1CCC[C@@H](N[C@@H]2COc3cc(-c4noc(-c5onc(-c6ccccc6)c5C(F)(F)F)n4)ccc3[C@@H]2O)C1 [Example 65, (1R,3R)-3-((3R,4S)-4-hydroxy-7-(5-(3-phenyl-4-(trifluoromethyl)isoxazol-5-yl)-1,2,4-oxadiazol-3-yl)chroman-3-ylamino)cyclohexanecarboxylic acid] | 6.6 nM | 1.1 nM | 11000 nM | 9600 | – | 55%

Continued, in another order:

Row | IC50 (human S1P1) | EC50 [1] | EC50 [2] | GTPγS S1P3/S1P1 (ratio of GTPγS S1P3 EC50 to GTPγS S1P1 EC50) [1] | Compound | % Reduction in Lymphocytes at 4 hr. ([3]; 3 mg/kg) | % Reduction in Lymphocytes at 4 hr. ([3]; 0.5 mg/kg)
9 | – | – | 25000 nM | – | O=C(O)CCN[C@H]1COc2cc(-c3noc(-c4onc(-c5ccccc5)c4C(F)(F)F)n3)ccc2[C@@H]1O (racemic) [Example 5, 3-((3R*,4R*)-4-hydroxy-7-(5-(3-phenyl-4-(trifluoromethyl)isoxazol-5-yl)-1,2,4-oxadiazol-3-yl)chroman-3-ylamino)propanoic acid] | – | –
10 | – | – | 12000 nM | – | O=C(O)[C@H]1C[C@@H](N[C@H]2COc3cc(-c4noc(-c5onc(-c6ccccc6)c5C(F)(F)F)n4)ccc3[C@H]2O)C1 [Example 25, (1R,3S)-3-((3S,4R)-4-hydroxy-7-(5-(3-phenyl-4-(trifluoromethyl)isoxazol-5-yl)-1,2,4-oxadiazol-3-yl)chroman-3-ylamino)cyclobutanecarboxylic acid] | 93% | –
11 | 13 nM | 6.5 nM | 8000 nM | 1200 | O=C(O)C1(CN[C@@H]2COc3cc(-c4noc(-c5onc(-c6ccccc6)c5C(F)(F)F)n4)ccc3[C@@H]2O)CC1 [Example 30, 1-(((3R,4S)-4-hydroxy-7-(5-(3-phenyl-4-(trifluoromethyl)isoxazol-5-yl)-1,2,4-oxadiazol-3-yl)chroman-3-ylamino)methyl)cyclopropanecarboxylic acid] | – | –
12 | 20 nM | 16 nM | 8400 nM | 510 | O=C(O)C1(CN[C@@H]2COc3cc(-c4noc(-c5onc(-c6ccccc6)c5C(F)(F)F)n4)ccc3[C@@H]2O)CCC1 [Example 41, 1-(((3R,4S)-4-hydroxy-7-(5-(3-phenyl-4-(trifluoromethyl)isoxazol-5-yl)-1,2,4-oxadiazol-3-yl)chroman-3-ylamino)methyl)cyclobutanecarboxylic acid] | – | 11%
13 | – | – | 22000 nM | – | O=C(O)CCN[C@@H]1COc2cc(-c3noc(-c4onc(-c5ccccc5)c4C(F)(F)F)n3)ccc2[C@@H]1O [Example 53, 3-((3R,4S)-4-Hydroxy-7-(5-(3-phenyl-4-(trifluoromethyl)isoxazol-5-yl)-1,2,4-oxadiazol-3-yl)chroman-3-ylamino)propanoic acid] | – | –
14 | 3.8 nM | 5.4 nM | 5200 nM | 960 | O=C(O)CN[C@@H]1COc2cc(-c3noc(-c4onc(-c5ccccc5)c4C(F)(F)F)n3)ccc2[C@@H]1O [Example 68, 2-((3R,4S)-4-hydroxy-7-(5-(3-phenyl-4-(trifluoromethyl)isoxazol-5-yl)-1,2,4-oxadiazol-3-yl)chroman-3-ylamino)acetic acid] | – | –

From patent US8629282B2, “Heterocyclic compounds as S1P1 agonists for the treatment of autoimmune and vascular diseases” (Bristol-Myers Squibb Company, priority 2010, dated 2014)
